Experimental data from patent US8193356B2, “Heterocycle compound, and production process and application thereof” (Aska Pharmaceutical Co., Ltd., priority 2005, dated 2012).

Row | Structure (SMILES) | melting point
1 | O=c1c2c(Cc3ccccc3OC(F)(F)F)n[nH]c2c2cccnc2n1-c1cccc(OC(F)(F)F)c1 [Example 26, 3-(2-Trifluoromethoxybenzyl)-5-(3-trifluoromethoxyphenyl)-1H-pyrazolo[4,3-c][1,8]naphthyridin-4(5H)-one] | 233 to 236 °C
2 | O=c1c2c(Cc3cccc(C(F)(F)F)c3)n[nH]c2c2cccnc2n1-c1cccc(C(F)(F)F)c1 [Example 18, 3-(3-Trifluoromethylbenzyl)-5-(3-trifluoromethylphenyl)-1H-pyrazolo[4,3-c][1,8]naphthyridin-4(5H)-one] | 206 to 208 °C
3 | CC(c1ccccc1)c1n[nH]c2c1c(=O)n(-c1cccc(OC(F)(F)F)c1)c1ncccc21 (centres unmarked) [Example 36, 3-(1-Phenylethyl)-5-(3-trifluoromethoxyphenyl)-1H-pyrazolo[4,3-c][1,8]naphthyridin-4(5H)-one] | 183 to 185 °C
4 | O=c1c2c(Cc3ccccc3)n[nH]c2c2cnccc2n1-c1ccccc1 [Example 15, 3-Benzyl-5-phenyl-1H-pyrazolo[4,3-c][1,6]naphthyridin-4(5H)-one] | 284 to 287 °C
5 | O=c1c2c(Cc3ccccc3Cl)n[nH]c2c2cccnc2n1-c1cccc(OC(F)(F)F)c1 (hydrate or solvate) [Example 33, 3-(2-Chlorobenzyl)-5-(3-trifluoromethoxyphenyl)-1H-pyrazolo[4,3-c][1,8]-naphthyridin-4(5H)-one] | 273 to 275 °C
6 | O=c1c2c(Cc3ccc(F)cc3)n[nH]c2c2cccnc2n1-c1cccc(C(F)(F)F)c1 (hydrate or solvate) [Example 38, 3-(4-Fluorobenzyl)-5-(3-trifluoromethylphenyl)-1H-pyrazolo[4,3-c][1,8]-naphthyridin-4(5H)-one] | 243 to 245 °C
7 | COc1ccccc1Cc1n[nH]c2c1c(=O)n(-c1cccc(OC(F)(F)F)c1)c1ncccc21 (hydrate or solvate) [Example 31, 3-(2-Methoxybenzyl)-5-(3-trifluoromethoxyphenyl)-1H-pyrazolo[4,3-c][1,8]-naphthyridin-4(5H)-one] | 243 to 245 °C
8 | O=c1c2c(Cc3ccccc3)n[nH]c2c2ccncc2n1-c1ccccc1 [Example 29, 3-Benzyl-5-phenyl-1H-pyrazolo[4,3-c][1,7]naphthyridin-4(5H)-one] | 303 to 307 °C
9 | O=c1c2c(Cc3cccc(OC(F)(F)F)c3)n[nH]c2c2cccnc2n1-c1cccc(OC(F)(F)F)c1 [Example 27, 3-(3-Trifluoromethoxybenzyl)-5-(3-trifluoromethoxyphenyl)-1H-pyrazolo[4,3-c][1,8]naphthyridin-4(5H)-one] | 174 to 177 °C
10 | O=c1c2c(Cc3ccccc3[N+](=O)[O-])n[nH]c2c2cccnc2n1-c1cccc(C(F)(F)F)c1 (hydrate or solvate) [Example 41, 3-(2-Nitrobenzyl)-5-(3-trifluoromethylphenyl)-1H-pyrazolo[4,3-c][1,8]-naphthyridin-4(5H)-one] | 282 to 284 °C
11 | O=c1c2c(CC3CCCCC3)n[nH]c2c2cccnc2n1-c1ccccc1 [Example 13, 3-Cyclohexylmethyl-5-phenyl-1H-pyrazolo[4,3-c][1,8]naphthyridin-4(5H)-one] | 280 to 281 °C
12 | O=c1c2c(Cc3ccc(C(F)(F)F)cc3)n[nH]c2c2cccnc2n1-c1cccc(C(F)(F)F)c1 [Example 19, 3-(4-Trifluoromethylbenzyl)-5-(3-trifluoromethylphenyl)-1H-pyrazolo[4,3-c][1,8]naphthyridin-4(5H)-one] | 145 to 148 °C
13 | O=c1c2c(Cc3ccccc3C(F)(F)F)n[nH]c2c2cccnc2n1-c1cccc(OC(F)(F)F)c1 [Example 23, 5-(3-Trifluoromethoxyphenyl)-3-(2-trifluoromethylbenzyl)-1H-pyrazolo[4,3-c][1,8]naphthyridin-4(5H)-one] | 252 to 255 °C
14 | Cc1ccccc1Cc1n[nH]c2c1c(=O)n(-c1cccc(C(F)(F)F)c1)c1ncccc21 (hydrate or solvate) [Example 40, 3-(2-Methylbenzyl)-5-(3-trifluoromethylphenyl)-1H-pyrazolo[4,3-c][1,8]-naphthyridin-4(5H)-one] | 249 to 252 °C
15 | O=c1c2c(Cc3ccccc3)n[nH]c2c2cccnc2n1-c1cccc(C(F)(F)F)c1 (hydrate or solvate) [Example 2, 3-Benzyl-5-(3-trifluoromethylphenyl)-1H-pyrazolo[4,3-c][1,8]-naphthyridin-4(5H)-one] | 226 to 228 °C
16 | O=c1c2c(Cc3ccc(OC(F)(F)F)cc3)n[nH]c2c2cccnc2n1-c1cccc(OC(F)(F)F)c1 [Example 28, 3-(4-Trifluoromethoxybenzyl)-5-(3-trifluoromethoxyphenyl)-1H-pyrazolo[4,3-c][1,8]naphthyridin-4(5H)-one] | 129 to 132 °C
17 | O=c1c2c(Cc3ccc(OC(F)(F)F)cc3)n[nH]c2c2cccnc2n1-c1cccc(C(F)(F)F)c1 [Example 22, 3-(4-Trifluoromethoxybenzyl)-5-(3-trifluoromethylphenyl)-1H-pyrazolo[4,3-c][1,8]naphthyridin-4(5H)-one] | 134 to 137 °C
18 | O=c1c2c(Cc3cccc(OC(F)(F)F)c3)n[nH]c2c2cccnc2n1-c1ccccc1 (hydrate or solvate) [Example 5, 5-Phenyl-3-(3-trifluoromethoxybenzyl)-1H-pyrazolo[4,3-c][1,8]naphthyridin-4(5H)-one] | 253 to 254 °C

Row | Structure (SMILES) | melting point
19 | O=c1c2c(Cc3ccccc3)n[nH]c2c2ncccc2n1-c1ccccc1 (hydrate or solvate) [Example 30, 3-Benzyl-5-phenyl-1H-pyrazolo[4,3-c][1,5]naphthyridin-4(5H)-one] | 269 to 272 °C
20 | O=c1c2c(CC3CCOCC3)n[nH]c2c2cccnc2n1-c1ccccc1 (hydrate or solvate) [Example 44, 5-Phenyl-3-(tetrahydro-2H-pyran-4-ylmethyl)-1H-pyrazolo[4,3-c][1,8]naphthyridin-4(5H)-one] | 228 to 234 °C
21 | O=c1c2c(Cc3ccccc3OC(F)(F)F)n[nH]c2c2cccnc2n1-c1ccccc1 (hydrate or solvate) [Example 4, 5-Phenyl-3-(2-trifluoromethoxybenzyl)-1H-pyrazolo[4,3-c][1,8]naphthyridin-4(5H)-one] | 275 °C (dec.)
22 | CC(c1ccccc1)c1n[nH]c2c1c(=O)n(-c1ccccc1)c1ncccc21 (centres unmarked) (hydrate or solvate) [Example 11, 5-Phenyl-3-(1-phenylethyl)-1H-pyrazolo[4,3-c][1,8]naphthyridin-4(5H)-one] | 267 to 268 °C
23 | O=c1c2c(Cc3ccccc3[N+](=O)[O-])n[nH]c2c2cccnc2n1-c1cccc(OC(F)(F)F)c1 (hydrate or solvate) [Example 35, 3-(2-Nitrobenzyl)-5-(3-trifluoromethoxyphenyl)-1H-pyrazolo[4,3-c][1,8]-naphthyridin-4(5H)-one] | 274 to 276 °C
24 | O=c1c2c(Cc3ccc(C(F)(F)F)cc3)n[nH]c2c2cccnc2n1-c1cccc(OC(F)(F)F)c1 [Example 25, 5-(3-Trifluoromethoxyphenyl)-3-(4-trifluoromethylbenzyl)-1H-pyrazolo[4,3-c][1,8]naphthyridin-4(5H)-one] | 227 to 231 °C
25 | O=c1c2c(Cc3ccc(OC(F)(F)F)cc3)n[nH]c2c2cccnc2n1-c1ccccc1 (hydrate or solvate) [Example 6, 5-Phenyl-3-(4-trifluoromethoxybenzyl)-1H-pyrazolo[4,3-c][1,8]naphthyridin-4(5H)-one] | 216 to 218 °C
26 | O=c1c2c(Cc3ccccc3)n[nH]c2c2cccnc2n1-c1cccc(OC(F)(F)F)c1 (hydrate or solvate) [Example 1, 3-Benzyl-5-(3-trifluoromethoxyphenyl)-1H-pyrazolo[4,3-c][1,8]-naphthyridin-4(5H)-one] | 249 to 251 °C
27 | COCc1n[nH]c2c1c(=O)n(-c1ccccc1)c1ncccc21 (hydrate or solvate) [Example 10, 3-(Methoxymethyl)-5-phenyl-1H-pyrazolo[4,3-c][1,8]naphthyridin-4(5H)-one] | 263 to 265 °C
28 | O=c1c2c(Cc3ccccc3)n[nH]c2c2ccccc2n1-c1ccccc1 [Example 16, 3-Benzyl-5-phenyl-1H-pyrazolo[4,3-c]quinolin-4(5H)-one] | 255 to 257 °C
29 | O=c1c2c(Cc3cccs3)n[nH]c2c2cccnc2n1-c1cccc(OC(F)(F)F)c1 [Example 45, 3-(2-Thienylmethyl)-5-(3-trifluoromethoxyphenyl)-1H-pyrazolo[4,3-c][1,8]-naphthyridin-4(5H)-one] | 234 to 238 °C
30 | O=c1c2c(Cc3cccc(OC(F)(F)F)c3)n[nH]c2c2cccnc2n1-c1cccc(C(F)(F)F)c1 [Example 21, 3-(3-Trifluoromethoxybenzyl)-5-(3-trifluoromethylphenyl)-1H-pyrazolo[4,3-c][1,8]naphthyridin-4(5H)-one] | 129 to 132 °C
31 | COc1ccccc1Cc1n[nH]c2c1c(=O)n(-c1cccc(C(F)(F)F)c1)c1ncccc21 (hydrate or solvate) [Example 37, 3-(2-Methoxybenzyl)-5-(3-trifluoromethylphenyl)-1H-pyrazolo[4,3-c][1,8]-naphthyridin-4(5H)-one] | 229 to 231 °C
32 | O=c1c2c(Cc3ccccc3OC(F)(F)F)n[nH]c2c2cccnc2n1-c1cccc(C(F)(F)F)c1 [Example 20, 3-(2-Trifluoromethoxybenzyl)-5-(3-trifluoromethylphenyl)-1H-pyrazolo[4,3-c][1,8]naphthyridin-4(5H)-one] | 247 to 252 °C
33 | O=c1c2c(CCCCCCc3ccccc3)n[nH]c2c2cccnc2n1-c1ccccc1 [Example 12, 5-Phenyl-3-(6-phenylhexyl)-1H-pyrazolo[4,3-c][1,8]naphthyridin-4(5H)-one] | 150 to 151 °C
34 | O=c1c2c(CCC(F)(F)F)n[nH]c2c2cccnc2n1-c1ccccc1 [Example 14, 5-Phenyl-3-(3,3,3-trifluoropropyl)-1H-pyrazolo[4,3-c][1,8]naphthyridin-4(5H)-one] | 272 to 274 °C
35 | O=c1c2c(Cc3ccc(C(F)(F)F)cc3)n[nH]c2c2cccnc2n1-c1ccccc1 [Example 7, 5-Phenyl-3-(4-trifluoromethylbenzyl)-1H-pyrazolo[4,3-c][1,8]naphthyridin-4(5H)-one] | 216 to 219 °C
